Several values for one entry are separate records, joined by “and”; a condition that tells them apart may be missing. Identical values can stand only once. Like-named read-outs stand apart in the source and are kept apart here.
Tests used:
[1] = system: Staphylococcus aureus MRSA ATCC 33591; assay: MIC broth microdilution, compounds and antibiotics alone and in combination; assay type: cell-based; settings: for Minimum Inhibitory Concentration (MIC) / MIC: alone, or antibiotic with SDBS/DBSA at sub-MIC concentration; for MIC: Staphylococcus aureus, read-out: Minimum Inhibitory Concentration (MIC)
Experimental: (§1) Antibiotic and Antibiofilm Susceptibility Tests. Minimum inhibitory concentration (MIC) broth microdilution method was performed according to CLSI guidelines (CLSI M07-A10: Methods for Dilution Antimicrobial Susceptibility Tests for Bacteria that Grow
(§2) Aerobically; Approved Standard-Tenth Edition). Minimum bactericidal concentration (MBC) was performed according to CLSI guidelines (CLSI M26-A: Methods for Determining Bactericidal Activity of Antimicrobial Agents; Approved Guideline).
(§3) The antibiotic resistance breakpoints were defined according to the recommendations of the Clinical and Laboratory Standards Institute (CLSI M07-A10: Methods for Dilution Antimicrobial Susceptibility Tests for Bacteria That Grow Aerobically; Approved Standard-Tenth Edition).
Four antibiotics (penicillin G, methicillin, gentamycin, and vancomycin) were tested in combination with SDBS and DBSA, by using a checkerboard methodology against MRSA ATCC 33591 (methicillin-R, gentamicin-R; penicillin-R) and VRSA VRS7 BEI NR-46417 (methicillin-R, gentamicin-R; penicillin-R, vancomycin-R). The combinations were assessed by fractional inhibitory concentration indices (FICIs) and the fold reduction of the MIC (“potentiation factor”) was calculated. In clinical terms, a potentiator enhances the action of a drug. SDBS and […] potentiate methicillin, gentamicin, penicillin, and vancomycin activity against MRSA and VRSA making MRSA and VRSA sensitive to those antibiotics (Table 13).

[2] = system: Staphylococcus aureus VRSA VRS7 NR-46417; assay: as above; assay type: cell-based; settings: for MIC: Staphylococcus aureus, read-out: Minimum Inhibitory Concentration (MIC)
Experimental: as §1, §2, §3
Four antibiotics (penicillin G, methicillin, gentamycin, and vancomycin) were tested in combination with SDBS and DBSA, by using a checkerboard methodology against MRSA ATCC 33591 (methicillin-R, gentamicin-R; penicillin-R) and VRSA VRS7 BEI NR-46417 (methicillin-R, gentamicin-R; penicillin-R, vancomycin-R). The combinations were assessed by fractional inhibitory concentration indices (FICIs) and the fold reduction of the MIC (“potentiation factor”) was calculated. In clinical terms, a potentiator enhances the action of a drug.

[3] = system: S. aureus ATCC 12600 biofilm; assay: Biofilm inhibition (MBIC), Syto 9 imaging; assay type: cell-based, Staphylococcus aureus
Experimental: (§4) FIGS. 1A and 1B show biofilm inhibition by butyl phosphoramidate (BPA), sodium dodecylbenzenesulfonate (SDBS), and 4-Dodecylbenzenesulfonic acid (DBSA) against Staphylococcus aureus ATCC 12600 and E. coli ATCC 11775, which was determined by (A) measuring total intensity with Ex/Em (nm): 456/541 and (B) staining biofilm with Syto 9 green-fluorescent nucleic acid stain. Biofilm images appear white and gray and images without biofilm appear black. Images of untreated biofilm, sub-MBIC, and MBIC were taken using MiniMax 300 Imaging Cytometer (Molecular Devices).
(§5) Imaging. Biofilm inhibition imaging was determined by growing biofilm in a black-walled optically-clear bottom 96 well plate at a 45° angle to promote biofilm formation prior to imaging. Biofilm was stained with Syto 9 green fluorescent live and dead nucleic acid stain and measuring total intensity with excitation/emission (nm): 456/541. Images of biofilm were taken using MiniMax 300 Imaging Cytometer (Molecular Devices).

[4] = system: P. aeruginosa type 2 mucoid ATCC 33468; assay: MIC broth microdilution; assay type: cell-based, Pseudomonas aeruginosa
Experimental: as §1, §2

[5] = system: E. coli ATCC 11775 biofilm; assay: Biofilm inhibition (MBIC), Syto 9 imaging; assay type: cell-based
Experimental: as §4, §5

[6] = system: B. cepacia biofilm; assay: Biofilm inhibition (MBIC); assay type: cell-based, Burkholderia cepacia
Experimental: as §5

[7] = system: S. aureus ATCC 6358 biofilm; assay: Minimum biofilm eradicating concentration (MBEC) assay, ASTM E2799-12; assay type: cell-based, Staphylococcus aureus
Experimental: Data corresponds to 4.4-Log reduction.
Minimum biofilm eradicating concentration (MBEC) was performed according to the ASTM standard (ASTM E2799-12; Standard Test Method for Testing Disinfectant Efficacy against Pseudomonas aeruginosa Biofilm using the MBEC Assay). Assays were performed in quadruplicates on more than one occasion.

[8] = VRSA VRS7 NR-46417, alone, or antibiotic with SDBS/DBSA at sub-MIC concentration

Molecule	Resistant / sensitive by CLSI breakpoints [1]	Resistant / sensitive by CLSI breakpoints ([2]; VRSA VRS7 NR-46417)	MBIC (inhibition of biofilm formation) [3] [µg/mL]	MIC [1] [µg/mL]	MIC [2, 8] [µg/mL]	other results
gentamicin	(R)	(R)	–	–	–	Minimum Inhibitory Concentration (MIC) [1]: >45.4 µg/mL; Minimum Inhibitory Concentration (MIC) [2, 8]: 22.7 µg/mL
CCCCCCCCCCCCOS(=O)(=O)[O-].[Na+] [SDS, sodium dodecyl sulfate]	–	–	140	–	–	–
CC1(C)S[C@@H]2[C@H](NC(=O)Cc3ccccc3)C(=O)N2[C@H]1C(=O)O [Penicillin, penicillin G]	(R)	(R)	–	> 22.7	11.3	–
CN[C@H](CC(C)C)C(=O)N[C@H]1C(=O)N[C@@H](CC(N)=O)C(=O)N[C@H]2C(=O)N[C@H]3C(=O)N[C@H](C(=O)N[C@H](C(=O)O)c4cc(O)cc(O)c4-c4cc3ccc4O)[C@H](O)c3ccc(c(Cl)c3)Oc3cc2cc(c3O[C@@H]2O[C@H](CO)[C@@H](O)[C@H](O)[C@H]2O[C@H]2C[C@](C)(N)[C@H](O)[C@H](C)O2)Oc2ccc(cc2Cl)[C@H]1O [Vancomycin, vancomycin]	–	(R)	–	–	–	MIC ([2]; VRSA): 22.7 µg/mL
COc1cccc(OC)c1C(=O)N[C@@H]1C(=O)N2[C@@H]1SC(C)(C)[C@@H]2C(=O)O [Methicillin, methicillin]	(R)	(R)	–	> 22.7	> 22.7	–
butyl phosphoramidate [BPA]	–	–	50	–	–	Minimum Inhibitory Concentration (MIC) [1]: 25 µg/mL and 12.5 µg/mL; Minimum Inhibitory Concentration (MIC) [2, 8]: 25 µg/mL and 12.5 µg/mL; Minimum Inhibitory Concentration (MIC) [4]: 25 µg/mL and 12.5 µg/mL; MBIC (inhibition of biofilm formation) [5]: 50 µg/mL; MBIC (inhibition of biofilm formation) [6]: 50 µg/mL; Log reduction of viable cells ([7]; after 10 minutes of exposure): 4.4 Log; removal of biofilm ([7]; after 10 minutes of exposure, colony counting CFU/ml): 99.99%; MBEC (removal of existing biofilm) ([7]; demonstrated by Lonza): < 25 µg/mL
CCCCCCCCCCCCc1ccc(S(=O)(=O)O)cc1 [DBSA, 4-Dodecylbenzenesulfonic acid]	–	–	100	19	> 20	–
